# Experimental data published in PMC4545587 (Biochimica et biophysica acta, 2013).
# No end group written: not given here.
# What was measured:
# [1] = test system: Pseudomonas aeruginosa type 1; assay type: cell-based
# [2] = test system: eukaryotic cells; conditions: cited from earlier work
sequence,measurement,setting,value
KLFKRHLKWKII [SC4],MIC value against P. aeruginosa,[1]; type 1,~ 18 µM
same,P.a. LD50,"[1]; type 1, pH 7",0.14 µM
same,lytic effect on eukaryotic cells,[2],no apparent lytic effect
